According to patent publication US20250170248A1, “SMARCA DEGRADERS AND USES THEREOF” (Kymera Therapeutics, Inc., priority 2021, published 2025):

Tests used:
Type in all cases: cell-based
SMARCA4 = molecular target: T1, SMARCA4 (Homo sapiens, UniProt P51532); assay: SMARCA4 Western blot degradation in MV4-11 cells; details: for Dmax: MV4-11, MV4-11 cells, read-out: SMARCA4 MSD MV411 degradation 24 h: average Dmax %; for Dmax / DC50: 24 h; for DC50 / SMARCA4 MSD MV411 degradation 24 h: average Dmax %: MV4-11 cells; for DC50: read-out: SMARCA4 MSD MV411 degradation 24 h: Mean external-Abs DC50
T1 construct: SMARCA2/SMARCA4 protein degradation selectivity in MV4-11 cells; endogenous in cells; host or cells: MV4-11
Procedure, shortened: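 Fluorescent LI-COR imaging of Western blots quantified SMARCA2 and SMARCA4 protein remaining in MV4-11 cells after 24 h of compound treatment. β-actin was the loading control, and DC50, Dmax and SMARCA2/4 selectivity are given as letter-coded ranges.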

SMARCA2 [1] = molecular target: T2, SMARCA2 (Homo sapiens, UniProt P51531); assay: SMARCA2 Western blot degradation in MV4-11 cells; design: SMARCA2/SMARCA4 protein degradation selectivity in MV4-11 cells; endogenous in cells; host or cells: MV4-11; details: for Dmax: MV4-11, MV4-11 cells, read-out: SMARCA2 MSD MV411 degradation 24 h: average Dmax %; for Dmax / DC50 / SMARCA2 MSD MV411 degradation 24 h: average Dmax %: 24 h; for DC50 / Selectivity in MV411 / SMARCA2 MSD MV411 degradation 24 h: average Dmax %: MV4-11 cells; for DC50: read-out: SMARCA2 MSD MV411 degradation 24 h: Mean external-Abs DC50; for Selectivity in MV411: SMARCA2/4 selectivity
SMARCA2 [2] = molecular target: T2, SMARCA2; assay: MSD SMARCA2 degradation in A549 cell line; details: for Dmax: A549, A549 cells; for Dmax / DC50: 24 h; for DC50 / SMARCA2 MSD A549 degradation 24 h: Average Dmax %: A549 cells; for DC50: read-out: SMARCA2 MSD A549 degradation 24 h: Average external-Abs DC50
Procedure, shortened: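 SMARCA2 protein remaining after 24 h exposure of A549 cells (top concentration 1000 nM, 3-fold dilutions) was measured by MSD electrochemiluminescence immunoassay of cell lysates. Results are given as binned DC50 and maximal degradation (Dmax) codes.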

T1 sequence (P51532 whole entry): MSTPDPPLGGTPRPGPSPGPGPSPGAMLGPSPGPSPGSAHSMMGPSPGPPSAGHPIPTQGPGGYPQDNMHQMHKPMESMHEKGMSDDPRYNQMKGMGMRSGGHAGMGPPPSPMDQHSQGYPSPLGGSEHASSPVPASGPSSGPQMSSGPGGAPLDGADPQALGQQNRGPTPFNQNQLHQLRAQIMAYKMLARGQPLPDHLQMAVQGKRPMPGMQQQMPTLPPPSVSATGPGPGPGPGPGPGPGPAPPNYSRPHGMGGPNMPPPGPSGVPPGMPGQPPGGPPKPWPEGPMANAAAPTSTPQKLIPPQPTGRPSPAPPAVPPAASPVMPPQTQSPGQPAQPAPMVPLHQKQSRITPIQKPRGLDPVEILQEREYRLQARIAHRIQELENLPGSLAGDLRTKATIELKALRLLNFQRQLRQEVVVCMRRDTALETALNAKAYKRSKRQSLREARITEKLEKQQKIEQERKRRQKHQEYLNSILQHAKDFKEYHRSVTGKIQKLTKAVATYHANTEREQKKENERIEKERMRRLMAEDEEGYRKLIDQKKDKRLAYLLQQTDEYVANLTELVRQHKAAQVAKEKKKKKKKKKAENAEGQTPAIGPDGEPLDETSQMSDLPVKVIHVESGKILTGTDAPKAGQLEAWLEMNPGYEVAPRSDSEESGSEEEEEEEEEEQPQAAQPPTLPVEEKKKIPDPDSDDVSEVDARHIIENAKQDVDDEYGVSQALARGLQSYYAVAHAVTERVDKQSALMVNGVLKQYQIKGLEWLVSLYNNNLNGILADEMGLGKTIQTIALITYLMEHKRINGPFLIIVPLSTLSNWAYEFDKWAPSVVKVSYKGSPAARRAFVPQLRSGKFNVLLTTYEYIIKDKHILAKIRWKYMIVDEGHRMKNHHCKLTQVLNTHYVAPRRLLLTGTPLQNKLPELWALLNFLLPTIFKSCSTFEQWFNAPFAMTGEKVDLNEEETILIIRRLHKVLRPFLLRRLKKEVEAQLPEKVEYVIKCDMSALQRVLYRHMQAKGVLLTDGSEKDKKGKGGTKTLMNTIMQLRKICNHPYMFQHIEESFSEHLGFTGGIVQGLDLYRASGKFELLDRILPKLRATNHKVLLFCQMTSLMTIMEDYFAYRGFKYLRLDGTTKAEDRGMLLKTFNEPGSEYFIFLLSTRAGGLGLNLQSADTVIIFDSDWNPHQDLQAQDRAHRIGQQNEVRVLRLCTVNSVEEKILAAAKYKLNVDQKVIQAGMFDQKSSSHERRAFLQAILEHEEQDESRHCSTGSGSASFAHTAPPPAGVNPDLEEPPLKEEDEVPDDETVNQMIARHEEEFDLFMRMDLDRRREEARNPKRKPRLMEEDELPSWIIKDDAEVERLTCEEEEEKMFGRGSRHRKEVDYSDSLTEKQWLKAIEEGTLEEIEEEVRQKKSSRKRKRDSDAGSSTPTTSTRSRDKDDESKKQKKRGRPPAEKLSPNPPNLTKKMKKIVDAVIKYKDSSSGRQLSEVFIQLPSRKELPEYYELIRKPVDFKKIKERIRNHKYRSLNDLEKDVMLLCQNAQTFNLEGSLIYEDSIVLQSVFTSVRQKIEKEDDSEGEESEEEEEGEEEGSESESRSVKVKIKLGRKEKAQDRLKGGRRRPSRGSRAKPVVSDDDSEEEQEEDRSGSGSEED
T2 sequence (P51531 whole entry): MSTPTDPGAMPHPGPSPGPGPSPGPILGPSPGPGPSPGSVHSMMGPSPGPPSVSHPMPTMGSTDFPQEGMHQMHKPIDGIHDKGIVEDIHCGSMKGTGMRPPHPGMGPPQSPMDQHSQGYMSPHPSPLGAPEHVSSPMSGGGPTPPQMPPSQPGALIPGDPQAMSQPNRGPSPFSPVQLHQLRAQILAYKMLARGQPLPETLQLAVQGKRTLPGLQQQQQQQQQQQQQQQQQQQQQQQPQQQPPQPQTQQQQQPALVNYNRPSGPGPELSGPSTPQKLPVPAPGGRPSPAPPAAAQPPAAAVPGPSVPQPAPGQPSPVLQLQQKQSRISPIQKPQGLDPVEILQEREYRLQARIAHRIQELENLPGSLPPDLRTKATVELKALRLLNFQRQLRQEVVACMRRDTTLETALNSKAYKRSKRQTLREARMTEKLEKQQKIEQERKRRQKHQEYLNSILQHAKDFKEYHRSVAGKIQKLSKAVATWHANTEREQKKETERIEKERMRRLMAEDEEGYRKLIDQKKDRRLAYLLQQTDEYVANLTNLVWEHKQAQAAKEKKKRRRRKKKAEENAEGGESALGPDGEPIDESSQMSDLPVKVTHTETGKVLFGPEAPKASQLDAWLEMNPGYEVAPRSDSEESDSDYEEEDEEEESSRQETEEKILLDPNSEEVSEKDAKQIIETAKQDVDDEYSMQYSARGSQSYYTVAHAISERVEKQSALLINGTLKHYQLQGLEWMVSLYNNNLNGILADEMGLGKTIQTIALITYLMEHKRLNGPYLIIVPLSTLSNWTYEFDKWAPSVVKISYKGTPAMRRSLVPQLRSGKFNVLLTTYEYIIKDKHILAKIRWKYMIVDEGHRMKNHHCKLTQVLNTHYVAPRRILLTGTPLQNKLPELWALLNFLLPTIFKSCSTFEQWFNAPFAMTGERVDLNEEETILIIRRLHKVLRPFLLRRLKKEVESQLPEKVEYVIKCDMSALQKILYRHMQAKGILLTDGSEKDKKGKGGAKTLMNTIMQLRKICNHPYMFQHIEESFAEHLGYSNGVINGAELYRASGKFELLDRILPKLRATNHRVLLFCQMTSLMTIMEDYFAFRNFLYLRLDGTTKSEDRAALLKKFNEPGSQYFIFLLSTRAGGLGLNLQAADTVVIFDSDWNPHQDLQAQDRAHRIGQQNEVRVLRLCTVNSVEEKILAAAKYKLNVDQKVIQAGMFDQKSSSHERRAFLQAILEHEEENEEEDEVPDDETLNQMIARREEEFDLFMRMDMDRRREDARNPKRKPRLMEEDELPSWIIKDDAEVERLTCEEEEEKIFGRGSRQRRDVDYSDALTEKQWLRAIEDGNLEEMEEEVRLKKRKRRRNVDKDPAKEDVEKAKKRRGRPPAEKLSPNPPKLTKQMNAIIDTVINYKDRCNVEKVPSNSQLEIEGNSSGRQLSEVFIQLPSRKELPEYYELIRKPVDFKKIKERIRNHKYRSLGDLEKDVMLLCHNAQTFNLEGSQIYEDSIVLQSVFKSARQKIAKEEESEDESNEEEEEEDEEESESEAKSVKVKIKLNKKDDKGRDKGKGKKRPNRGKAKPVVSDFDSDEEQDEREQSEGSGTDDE

| SMILES | Dmax (SMARCA4) [%] | DC50 (SMARCA4) [µM] | Dmax (SMARCA2 [1]) [%] | DC50 (SMARCA2 [1]) [µM] | Selectivity in MV411 (SMARCA2 [1]) | Dmax (SMARCA2 [2]) [%] | DC50 (SMARCA2 [2]) [µM] | SMARCA4 MSD MV411 degradation 24 h: average Dmax % (SMARCA4) | SMARCA2 MSD MV411 degradation 24 h: average Dmax % (SMARCA2 [1]) | SMARCA2 MSD A549 degradation 24 h: Average Dmax % (SMARCA2 [2]) |
| --- | --- | --- | --- | --- | --- | --- | --- | --- | --- | --- |
| C#Cc1ccc(CNC(=O)[C@@H]2C[C@@H](O)CN2C(=O)[C@@H](NC(=O)N2CC3(CC(N4CCC5(CCN(c6cnc(N7CCc8[nH]c9nnc(-c%10ccccc%10O)cc9c8C7C)nc6)C5)C4)C3)C2)C(C)(C)C)cc1 (stereo partly drawn) [I-173] | 50 to 70 | > 0.1 | 50 to 70 | 0.01 to 0.1 | C (C (10-100 fold)) | > 90 | > 0.1 |  |  |  |
| Cc1cc(Cl)ccc1C#CCNC(=O)[C@@H]1C[C@@H](O)CN1C(=O)[C@@H](NC(=O)[C@H]1CCC2(CC1)C[C@H](N1CCC(c3cnc(N4CCN5c6cc(-c7ccccc7O)nnc6NC[C@H]5C4)nc3)CC1)C2)C(C)(C)C (single isomer, unassigned) [I-104] | 70 to 90 | > 0.1 | < 50 | > 0.1 | C (C (10-100 fold)) |  | > 0.1 |  |  | A (A (>90% degradation)) |
| C#Cc1ccc(CNC(=O)[C@@H]2C[C@@H](O)CN2C(=O)[C@@H](NC(=O)N2CCN(C[C@H]3CC[C@@H](N4CCC(N5CCc6[nH]c7nnc(-c8ccccc8O)cc7c6[C@H]5C)CC4)CC3)CC2)C(C)(C)C)cc1 [I-193] | < 50 | > 0.1 | < 50 | > 0.1 | C (C (10-100 fold)) | 70 to 90 | > 0.1 |  |  |  |
| C#Cc1ccc(CNC(=O)[C@@H]2C[C@@H](O)CN2C(=O)[C@@H](NC(=O)C2CCN(CC3CCC(N4CCC(N5CCc6[nH]c7nnc(-c8ccccc8O)cc7c6[C@H]5C)CC4)CC3)CC2)C(C)(C)C)cc1 (stereo partly drawn) [I-197] | < 50 | > 0.1 | < 50 | > 0.1 | C (C (10-100 fold)) | 70 to 90 | > 0.1 |  |  |  |
| C#Cc1cnc(CNC(=O)[C@@H]2C[C@@H](O)CN2C(=O)[C@@H](NC(=O)[C@H]2CC3(C2)C[C@H](N2CCC(N4CCC(N5CCN6c7cc(-c8ccccc8O)nnc7NC[C@H]6C5)CC4)CC2)C3)C(C)(C)C)c(OC)c1 (single isomer, unassigned) [I-330] | < 50 | > 0.1 | 50 to 70 | > 0.1 | C (C (10-100 fold)) | 50 to 70 | > 0.1 |  |  |  |
| C#Cc1ccc(CNC(=O)[C@@H]2C[C@@H](O)CN2C(=O)[C@@H](NC(=O)N2CC3(CC(N4CCC(c5cnc(N6CCc7[nH]c8nnc(-c9ccccc9O)cc8c7[C@H]6C)nc5)CC4)C3)C2)C(C)(C)C)c(OCC(=O)O)c1 [I-144] | 70 to 90 | > 0.1 | 70 to 90 | 0.001 to 0.01 | C (C (10-100 fold)) | > 90 | 0.01 to 0.05 |  |  |  |
| C#Cc1ccc(CNC(=O)[C@@H]2C[C@@H](O)CN2C(=O)[C@@H](NC(=O)[C@H]2CC3(C2)C[C@H](N2CCC(N4CCC(N5CCN6c7cc(-c8ccccc8O)nnc7NC[C@H]6C5)CC4)CC2)C3)C(C)(C)C)cc1 (single isomer, unassigned) [I-113] | 50 to 70 | > 0.1 | 70 to 90 | 0.001 to 0.01 | B (B (>100-500 fold)) | > 90 | 0.01 to 0.05 |  |  |  |
| C#Cc1ccc(CNC(=O)[C@@H]2C[C@@H](O)CN2C(=O)[C@@H](NC(=O)[C@H]2CCC3(CC2)C[C@H](N2CCC(c4cnc(N5CCN6c7cc(-c8cccc(F)c8O)nnc7NC[C@H]6C5)nc4)CC2)C3)C(C)(C)C)cc1 (single isomer, unassigned) [I-102] | 50 to 70 | > 0.1 | 70 to 90 | 0.001 to 0.01 | C (C (10-100 fold)) |  | 0.01 to 0.05 |  |  | A (A (>90% degradation)) |

Other lines, results leading:

| Dmax (SMARCA4) [%] | DC50 (SMARCA4) [µM] | Dmax (SMARCA2 [1]) [%] | DC50 (SMARCA2 [1]) [µM] | Selectivity in MV411 (SMARCA2 [1]) | Dmax (SMARCA2 [2]) [%] | DC50 (SMARCA2 [2]) [µM] | SMARCA4 MSD MV411 degradation 24 h: average Dmax % (SMARCA4) | SMARCA2 MSD MV411 degradation 24 h: average Dmax % (SMARCA2 [1]) | SMARCA2 MSD A549 degradation 24 h: Average Dmax % (SMARCA2 [2]) | SMILES |
| --- | --- | --- | --- | --- | --- | --- | --- | --- | --- | --- |
| 70 to 90 | > 0.1 | 70 to 90 | 0.01 to 0.1 | D (D (<10 fold)) | > 90 | > 0.1 |  |  |  | C#Cc1ccc(CNC(=O)[C@@H]2C[C@@H](O)CN2C(=O)[C@@H](NC(=O)N2CC3(CC(N4CCC(c5cnc(N6CCc7[nH]c8nnc(-c9ccccc9O)cc8c7[C@H]6C)nc5)CC4)C3)C2)C(C)(C)C)c(OCCCN(C)C)c1 [I-127] |
|  | > 0.1 |  | 0.001 to 0.01 | B (B (>100-500 fold)) |  | > 0.1 | D (D (<50% degradation)) | B (B (>70-90% degradation)) | C (C (50-70% degradation)) | Cc1ncsc1-c1ccc(CNC(=O)[C@@H]2C[C@@H](O)CN2C(=O)[C@@H](NC(=O)[C@H]2CC3(C2)C[C@H](N2CCC(c4ccnc(N5CCN6c7cc(-c8ccccc8O)nnc7NC[C@@H]6C5)n4)CC2)C3)C(C)(C)C)cc1 (single isomer, unassigned) [I-4] |
| 70 to 90 | 0.01 to 0.1 | > 90 | 0.001 to 0.01 | C (C (10-100 fold)) | > 90 | < 0.01 |  |  |  | C#Cc1ccc(CNC(=O)[C@@H]2C[C@@H](O)CN2C(=O)[C@@H](NC(=O)c2ccc(N3CCC(N4CCC(N5CCN6c7cc(-c8ccccc8O)nnc7NC[C@H]6C5)CC4)CC3)cc2)C(C)(C)C)cc1 [I-277] |
|  | > 0.1 |  | 0.001 to 0.01 | A (A (>500 fold)) |  | > 0.1 | D (D (<50% degradation)) | B (B (>70-90% degradation)) | A (A (>90% degradation)) | C#Cc1ccc(CNC(=O)[C@@H]2C[C@@H](O)CN2C(=O)[C@@H](NC(=O)[C@H]2CC3(C2)C[C@H](N2CCC(N4CCC(N5CCN6c7cc(-c8ccccc8O)nnc7NC[C@H]6C5)CC4)CC2)C3)C(C)(C)CCO)cc1 (single isomer, unassigned) [I-365] |
| 50 to 70 | > 0.1 | 70 to 90 | 0.001 to 0.01 | A (A (>500 fold)) | 70 to 90 | > 0.1 |  |  |  | Cc1ncsc1-c1ccc(CNC(=O)[C@@H]2C[C@@H](O)CN2C(=O)[C@@H](NC(=O)[C@H]2CC3(C2)C[C@H](N2CCC(c4ccnc(N5CCN6c7cc(-c8ccccc8O)nnc7NC[C@@H]6C5)n4)CC2)C3)C(C)(C)C)cc1 (single isomer, unassigned) [I-3] |
| < 50 | > 0.1 | < 50 | > 0.1 | D (D (<10 fold)) | 50 to 70 | > 0.1 |  |  |  | C#Cc1ccc([C@H](C)NC(=O)[C@@H]2C[C@@H](O)CN2C(=O)[C@@H](c2cc(OCCN3CCC(N4CCC(N5CCC(CN6CCN7c8cc(-c9ccccc9O)nnc8NC[C@H]7C6)CC5)CC4)CC3)no2)C(C)C)cc1 (single isomer, unassigned) [I-334] |
|  | > 0.1 |  | 0.001 to 0.01 | B (B (>100-500 fold)) |  | 0.01 to 0.05 | D (D (<50% degradation)) | B (B (>70-90% degradation)) | A (A (>90% degradation)) | C#Cc1ccc(CNC(=O)[C@@H]2C[C@@H](O)CN2C(=O)[C@@H](NC(=O)[C@H]2CCC3(CC2)C[C@H](N2CCC(c4cnc(N5CCN6c7cc(-c8ccccc8O)nnc7NC[C@H]6C5)nc4)CC2)C3)C(C)(C)C)c(F)c1 (single isomer, unassigned) [I-116] |
| 70 to 90 | 0.01 to 0.1 | > 90 | 0.001 to 0.01 | C (C (10-100 fold)) | > 90 | < 0.01 |  |  |  | C#Cc1ccc(CNC(=O)[C@@H]2C[C@@H](O)CN2C(=O)[C@@H](NC(=O)N2CC3(CC(N4CCC(c5cnc(N6CCc7[nH]c8nnc(-c9ccccc9O)cc8c7[C@H]6C)nc5)CC4)C3)C2)C(C)(C)CCO)cc1 [I-288] |
| > 90 | 0.01 to 0.1 | 70 to 90 | 0.01 to 0.1 | C (C (10-100 fold)) | > 90 | 0.01 to 0.05 |  |  |  | Cn1nccc1-c1ccc(CNC(=O)[C@@H]2C[C@@H](O)CN2C(=O)[C@@H](NC(=O)[C@H]2CC[C@H](c3ccc(-c4cnc(N5CCN6c7cc(-c8ccccc8O)nnc7NC[C@H]6C5)nc4)cc3)CC2)C(C)(C)C)cc1 (single isomer, unassigned) [I-87] |
| > 90 | 0.01 to 0.1 | > 90 | 0.001 to 0.01 | D (D (<10 fold)) | 70 to 90 | 0.01 to 0.05 |  |  |  | Cc1ncsc1-c1ccc(CNC(=O)[C@@H]2C[C@@H](O)CN2C(=O)C(c2cc(OC[C@H]3CC[C@@H](N4CCC(c5cnc(N6CCc7[nH]c8nnc(-c9ccccc9O)cc8c7[C@H]6C)nc5)CC4)CC3)no2)C(C)C)cc1 (single isomer, unassigned) [I-2] |
